Like-named read-outs stand apart in the source and are kept apart here.
What was measured:
Type in all cases: cell-based
HPV16 E7 protein = molecular target: T1, HPV16 E7 protein (Human papillomavirus type 16, UniProt P03129); settings: CaSki cells; for % Dad: adjusted degradation, CHX steady state set to 100% degradation
T1 construct: endogenous in cells; host or cells: CaSki cells (HPV16-positive cervical carcinoma)
Method: For intracellular antibody labeling, 0.5×10^6 cells are washed once with 1 ml ice-cold PBS. Cells are centrifuged at 350×g for 5 minutes at 4° C. and then fixed in 1% paraformaldehyde (1 ml/10^6 cells) for 20 minutes at 4° C. Cells are washed with 1 ml ice-cold PBS and centrifuged at 350×g for 5 minutes at 4° C. To permeabilize cells, 100% ice-cold methanol (1 ml/10^6 cells) is added to the cells and incubated for 20 minutes at 4° C. followed by centrifugation at 350×g for 5 minutes at 4° C. Cells are washed with 1 ml ice-cold PBS, centrifuged at 350×g for 5 minutes at 4° C. and resuspended in 0.1% saponin+2% FBS in PBS (ice-cold). Cells are left for 20-30 minutes at room temperature to reduce the background signal and then centrifuged at 350×g for 5 minutes at 4° C. The primary antibody (mAb_HPV16E7-1 (VS13004); concentration 1 μg/μl) is diluted in 0.1% saponin+2% FBS (dilution 0.25 μg/50 μl of incubation buffer per 1×10^6 cells (5 ng/μl)). Cells are incubated with primary antibody for 30 minutes at room temperature, washed with 0.1% saponin+2% FBS and centrifuged at 350×g for 5 minutes at 4° C. The secondary antibody (FITC conjugated goat anti-mouse IgG1-IgM, BD, cat. #555988) is diluted in 0.1% saponin+2% FBS (dilution 1:50). Cells are incubated with secondary antibody for 30 minutes at room temperature, washed once with 0.1% saponin+2% FBS, once with PBS and centrifuged at 350×g for 5 minutes at 4° C.
Cells are resuspended in 700 μl PBS prior to CF analysis with a Beckman Coulter FC 500 MPL, (excitation laser 488 nm). Data analysis is done using the Beckman Coulter software packages MXP for acquisition and CXP for data analysis which includes MFI calculation. Detection of HPV-E7 protein expression is based on morphology back-gating of FL1 histogram (logarithmic scale) with gating for dot plot FS (Forward Scatter) log/SS (Sideward Scatter) log and gating for histograms SS log.
In order to define the level of E7 protein expression and to study the extent of E7 protein steady state level reduction in E7 expressing cells in the presence of various compounds, FC analysis is implemented using the intracellular antibody labeling procedure for monoclonal antibodies to HPV E7. E7 signal intensities are analyzed from the obtained FL1 histograms at logarithmic scale. The FL1 single histogram graph represents the variation in the mean fluorescence intensity (MFI) channel for cells treated with selected compounds compared to cells not incubated with primary antibodies but incubated with secondary, which allows to test for auto-fluorescence, and non-compound treated cells as controls. Non-primary antibody-stained cells are used to set the acquisition parameters to zero. Decrease of the mean fluorescence intensity channel corresponds to a decrease in the expression of HPV16 E7 protein. Degradation of E7 in cells is calculated as percent (%) reduction in MFI(x-Me) using the following formulas: % Drel=(T−C)/T*100; i) relative degradation: % Dad=(T−C)/(T−CHX)*100; ii) adjusted degradation: • Drel=relative degradation, • Dad=adjusted degradation assuming CHX % Drel=100; • T=MFI of non-treated cells; • C=MFI of compound treated cells; • CH=MFI of cycloheximide (CHX) treated cells;
For comparison within one experiment i) the % relative degradation (Drel) is sufficient, whereas for comparison between two or more experiments ii) the adjusted degradation (Dad) is used and CHX steady state is set to a 100% degradation parameter.
1×10^6 freshly seeded CaSki cells (ATCC CRL-7915), are grown in 10 cm diameter cell culture dishes in RPMI1640, 10% FCS medium at 37° C. 5% CO2 overnight and then incubated in the presence of 10 μM Cycloheximide (CHX) 10 μM OC246 or with vehicle alone for four hours at 37° C. 5% CO2. Following this E7 protein is assessed by cytofluorimetric analysis using intracellular HPV16 E7 antibody labeling. […]

[1] = test system: CaSki (ATCC CRM-CRL-1550); test: Monolayer assay using Sulphorhodamine B (SRB) staining, CaSki; settings: Homo sapiens, Ca-Ski
Method: Various cell culture cells grown as monolayers are harvested from exponential growing cultures after treatment with various OC compounds at different concentrations. For this depending on the cell line, 10.000 to 30.000 cells were plated in 96-well flat-bottom microtiter plates. After a 24 h recovery period to allow cells to resume exponential growth, supernatants are discarded and 100 μl of culture medium (eight control wells/plate) or culture medium with the test compound are added by a liquid handling robotic system (Microlab® Starlet, Hamilton) and treatment continued for 72 hrs. Compounds are applied at 9 concentrations and eight wells/concentration). At least three independent experiments are performed. For SRB staining, cells are fixed with SRB01 (Tab. 5) for 1 h at 4° C. (final concentration of TCA=10%) washed with a plate washer (Hydroflex, Tecan©) for five times with H2O; and stained with 100 μl of SRB02 at room temperature for 10 min following 4 washes in SRB03 and finally 100 μl of developer solution SRB04 for 5 minutes with shaking. Optical density is assessed using a plate-reader (Sunrise, Tecan©) at 540 nm.
Concentrations required for half maximal response of the compound for cell growth inhibition (EC50) is calculated by non-linear regression (log[conc. of inhibitor] versus response (% T/C)) using the analysis software GraphPad Prism®, Prism 5 for windows, version 5.01 (GraphPad Software Inc., CA).

[2] = test system: SARS-CoV-2 isolate BetaCov/Belgium/GHB-03021/2020; test: microbe, parasite or virus in culture; settings: 1.25 μM (non-toxic compound concentration), n4; for inhibition at 1.25 µM: Severe acute respiratory syndrome coronavirus 2
[3] = SRB assay from Caski cells, “0” = no activity detected with the concentrations tested, read-out: EC50 mean

T1 sequence (P03129 whole entry): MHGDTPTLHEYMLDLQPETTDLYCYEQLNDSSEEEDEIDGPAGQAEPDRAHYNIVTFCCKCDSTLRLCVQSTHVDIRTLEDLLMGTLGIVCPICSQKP

Structure (SMILES)	% Dad (HPV16 E7 protein)	inhibition at 1.25 µM [2]	other results
Cc1ccc(CN2C(=O)c3ccccc3C(C(=O)NCc3cccnc3)C2c2ccc(Cl)cc2)cc1 (centres unmarked) [OC255]	2%		
Cc1ccc(CN2C(=O)c3ccccc3C(C(=O)Nc3cccc(N4CCN(C)CC4)c3)C2c2ccc(Br)cc2)cc1 (centres unmarked) [OC247]	6%	30.6%	EC50 ([1]; read-out: EC50 mean [nM]): 6730 nM
Cc1ccc(CN2C(=O)c3ccccc3C(C(=O)NCCN(C)C)C2c2ccc(Cl)cc2)cc1 (centres unmarked) [OC250]	19%		
Cc1ccc(CN2C(=O)c3ccccc3C(C(=O)N3CCN(C=O)CC3)C2c2ccc(Cl)cc2)cc1 (centres unmarked) [OC258]	0%		
Cc1ccc(CN2C(=O)c3ccccc3C(C(=O)N3CCN(C)CC3)C2c2ccc(Cl)cc2)cc1 (centres unmarked) [OC256]	8%		
COc1ccc2c(c1)C(=O)N(Cc1ccc(C)cc1)[C@@H](c1ccc(C(F)(F)F)cc1)[C@@H]2C(=O)Nc1cccc(N2CCN(C)CC2)c1 (relative stereo) [OC969]	66%		
C[C@@H]1C[C@@H]([C@H](O)CC2CC(=O)NC(=O)C2)C(=O)[C@@H](C)C1 [CHX, Cycloheximide, reference compound]			% Drel (relative degradation) (HPV16 E7 protein; 10 μM, four hours): 78.78%; % Dab (adjusted degradation) (HPV16 E7 protein; 10 μM, four hours, CHX set to 100): 100%; MFI (mean fluorescence intensity) of E7 signal (HPV16 E7 protein; 10 μM, four hours, vehicle T 8.06): 1.71
COc1cc2c(cc1OC)[C@@H](C(=O)Nc1cccc(N3CCN(C)CC3)c1)[C@H](c1ccc(C(F)(F)F)cc1)N(Cc1ccc(C)cc1)C2=O (relative stereo) [OC971]	26%		
CN(C)CCNC(=O)C1c2ccccc2C(=O)N(Cc2ccc(N)cc2)C1c1ccc(C(F)(F)F)cc1 (centres unmarked) [OC380]	3%	72.6%	EC50 [1, 3]: 11400 nM
Cc1ccc(C2C(C(=O)NCCN(C)C)c3ccccc3C(=O)N2Cc2ccc(C(F)(F)F)cc2)cc1 (centres unmarked) [OC379]	26%	33.4%	EC50 [1, 3]: 11900 nM
Cc1ccc(CN2C(=O)c3ccccc3C(C(=O)NCc3ccc(N(C)C)cc3)C2c2ccc(Cl)cc2)cc1 (centres unmarked) [OC254]	16%		
c1c2c(cc3c1OCO3)-c1cc3ccc4c(c3c[n+]1CC2)OCO4 [Coptisin, reference compound]			% Inhibition [2]: 98.97%
CC(=O)Nc1ccc2c(c1)C(=O)N(Cc1ccc(C)cc1)[C@@H](c1ccc(C(F)(F)F)cc1)[C@@H]2C(=O)Nc1cccc(N2CCN(C)CC2)c1 (relative stereo) [OC970]	20%	3.03%	EC50 ([1]; read-out: EC50 mean [nM]): 5550 nM
CN(C)CCNC(=O)C1c2ccccc2C(=O)N(Cc2ccc(C(F)(F)F)cc2)C1c1ccc(C(F)(F)F)cc1 (centres unmarked) [OC378]	48%	43.4%	EC50 [1, 3]: 5690 nM
Cc1ccc(CN2C(=O)c3ccccc3C(C(=O)NCCN(C)C)C2c2ccc(C(F)(F)F)cc2)cc1 (centres unmarked) [OC377]	35%	81.6%	EC50 [1, 3]: 6750 nM
CS(=O)(=O)O.Cc1c(O)cccc1C(=O)N[C@@H](CSc1ccccc1)[C@H](O)CN1C[C@H]2CCCC[C@H]2C[C@H]1C(=O)NC(C)(C)C [Neifinavir-Mesylat, reference compound]			% Inhibition [2]: 9.49%
Cc1ccc(CN2C(=O)c3ccccc3C(C(=O)Nc3cccc(N4CCN(C)CC4)c3)C2c2ccc(Cl)c(Cl)c2)cc1 (centres unmarked) [OC245]	0%		
Cc1ccc(CN2C(=O)c3ccccc3C(C(=O)NCCN3CCCC3)C2c2ccc(Cl)cc2)cc1 (centres unmarked) [OC251]	1%		
CN(C)CCNC(=O)C1c2ccccc2C(=O)N(Cc2ccc(N(C)C)cc2)C1c1ccc(C(F)(F)F)cc1 (centres unmarked) [OC382]		41.2%	EC50 [1, 3]: 2300 nM
O=C(NOCC1CC1)c1ccc(F)c(F)c1Nc1ccc(I)cc1Cl [CI-1040, 2-(2-Chloro-4-iodophenylamino)-N-(cyclopropylmethoxy)-3,4-difluorobenzamide, reference compound]		146%	
COc1ccc2cc1Oc1ccc(cc1)C[C@H]1c3c(cc4c(c3Oc3cc5c(cc3OC)CCN(C)[C@@H]5C2)OCO4)CCN1C [Cepharantin, reference compound]			% Inhibition [2]: 2.32%
COCCNC(=O)C1c2ccccc2C(=O)N(Cc2ccc(C)cc2)C1c1ccc(Cl)cc1 (centres unmarked) [OC252]	0%		
Cc1ccc(CN2C(=O)c3ccccc3C(C(=O)NCCN(C)C)C2c2ccc(C(F)(F)F)nc2)cc1 (centres unmarked) [OC381]	41%	43.7%	EC50 ([1]; read-out: EC50 mean [nM]): 17500 nM
CO[C@H]1C[C@@H]2CC[C@@H](C)[C@@](O)(O2)C(=O)C(=O)N2CCCC[C@H]2C(=O)O[C@H]([C@H](C)C[C@@H]2CC[C@@H](O)[C@H](OC)C2)CC(=O)[C@H](C)/C=C(\C)[C@@H](O)[C@@H](OC)C(=O)[C@H](C)C[C@H](C)/C=C/C=C/C=C/1C [Rapamycin, reference compound]		21.1%	
